According to paper PMC13130965, “An Integrated Approach Combining Regulatory Tests in tg(cyp19a1b:GFP) Zebrafish Embryos to Assess Toxicity, Developmental Effects, and Estrogenic Activity of Chemicals: A Case Study with Bisphenol A Substitutes” (Environmental Science & Technology, 2026):
In brackets after ≈: the same amount, converted by molar mass. Read-outs that look alike come from different tables or passages of the source.

Experiments:
[1] = tested on: tg(cyp19a1b:GFP) zebrafish embryos; assay: Refined Fish Embryo Acute Toxicity test (FET, OECD TG 236): mortality; format: in vivo, zebrafish (Danio rerio); details: nominal, brackets 95% CI
Protocol: (§1) Exposures were carried out in presaturated 24-well plates containing one embryo per well in 2 mL of test solution. The exposure was performed under semistatic conditions, with daily renewal of the test solution. The concentration ranges tested, along with a control with the same percentage of solvent alone, are recapitulated in Table S1. All exposure concentrations are reported as nominal. During the time course of the refined FET tests, embryos were observed after 8 h (coagulation), 24 h (lack of somite formation and nondetachment of the tail), and 48, 72, and 96 h of exposure (nondetection of the heartbeat). […] Moreover, hatching rate and nonlethal developmental effects (i.e., yolk deformity, growth retardation, spontaneous movement, edema, blood tail circulation, heart rate, pigmentation, head and tail/spinal malformations, and hemorrhage) were monitored daily. Tail/spinal malformations included lordosis, kyphosis, scoliosis, and reduced tail length.
(§2) This analysis considered all nonlethal developmental end points monitored in the refined FET assay (see above), except effects on hatching, pigmentation, spontaneous movement, and blood circulation. A teratogenic index (TI) was then calculated as the ratio LC50/EC50.
(§3) Baseline toxicity and experimental FET LC50 values were used to calculate toxic ratios (TR = predicted baseline toxicity LC50/experimental FET LC50). Compounds with TR < 10 were considered as baseline toxicants.

Zebrafish embryos = details: cited from earlier work; for LOEC (body length, GnRH3 neurons, reproductive neuroendocrine-related genes and hormones) / NOEC (body length, GnRH3 neurons, reproductive neuroendocrine-related genes and hormones): 120h-exposure, ref Qiu et al. (2021); for LC10(96h): ref Blanc et al. (2019)
[2] = Refined Fish Embryo Acute Toxicity test (FET, OECD TG 236): mortality; format: in vivo, zebrafish (Danio rerio); details: tg(cyp19a1b:GFP), zebrafish, in vivo, other: waterborne exposure of embryos in test solution, LC50 (96h) experimental (FET test), nominal, brackets 95% CI
Protocol: as §1, §2, §3

[3] = tested on: tg(cyp19a1b:GFP) zebrafish embryos; assay: Refined FET: developmental effects / malformations; format: in vivo, zebrafish (Danio rerio); details: nominal; for EC50: Danio rerio, end of 96 h exposure, read-out: EC50 malformations (cumulative sublethal end points); for LOEC deformity of yolk: at least 10% of embryos affected
Protocol: as §1, §2

[4] = tested on: cyp19a1b:GFP (brain aromatase) in tg(cyp19a1b:GFP) zebrafish embryos; assay: EASZY assay (OECD TG 250): GFP induction; format: in vivo, zebrafish (Danio rerio); details: for EC50: read-out: EASZY relative EC50, nominal
Protocol: The tests were conducted according to OECD TG 250. Newly fertilized cyp19a1b-GFP eggs were transferred to glass crystallizing dishes and exposed for 96 h in a humidified climate chamber (27 ± 2 °C) under semistatic conditions with a total renewal of the test solutions each day. Each condition consisted of three crystallizing dishes, each containing 7 embryos and 15 mL of test medium. Embryos were exposed to a range of nonlethal concentrations of chemicals as determined previously based on the refined FET assays. The tested concentration ranges of bisphenols, along with a control with the same percentage of solvent alone, are summarized in Table S2. All exposure concentrations are reported as nominal. At the end of exposure, transgenic zebrafish embryos were collected for fluorescence imaging to quantify GFP intensity. At the end of the experiments, all living zebrafish embryos were euthanized as described above. […] ICI was added together with bisphenols from 0 to 4 dpf (days post fertilization). […] In all coexposure experiments, the final DMSO concentration was 0.02% (v/v).
For fluorescence imaging, GFP fold induction was expressed as mean ± SEM, and values were compared to the DMSO control using one-way ANOVA followed by Dunnett’s posthoc test. […]

zebrafish ERβ2 (zfERβ2) = zebrafish ERβ2 (zfERβ2) (Danio rerio, UniProt Q7ZU32); assay: ZELH-zfERβ2 luciferase reporter gene assay; format: cell-based; details: read-out: maximal efficacy
Protocol: The ZELH-zfERs reporter cell line was previously established after a two-step stable transfection of the zebrafish hepatic cell line ZFL with the luciferase gene under the control of ERE (yielding the ZELH cell line that expresses no functional ER) and the zebrafish ER subtype β2 (yielding the ZELH-zfERβ2 cell line). Cells were cultured, exposed to chemicals for 72 h, and measured for luciferase activity exactly as previously described. , For each chemical, serial dilutions were prepared in DMSO and tested in three independent experiments. The final DMSO concentration in the culture medium was always 0.1% v/v. All tested concentrations refer to nominal concentrations.

hERβ [5] = tested on: hERβ; parameters: method as in Grimaldi et al.; details: HELN-hERβ; ref Grimaldi et al.; cited from earlier work
[6] = ref Adamovsky et al.; cited from earlier work
hERβ [7] = tested on: hERβ; parameters: method as in Pelch et al.; details: HepG2-hERβ, ref Pelch et al., cited from earlier work; for EC50: NA = not active
Adult Zebrafish = details: ref Ren et al. (2017); cited from earlier work
[8] = tested on: cyp19a1b:GFP (brain aromatase) in tg(cyp19a1b:GFP) zebrafish embryos; assay: Refined FET: GFP fluorescence imaging at 96 h; format: in vivo, zebrafish (Danio rerio); details: nominal
Protocol: as §1, with “All the tests were conducted according to OECD TG 236, except for the temperature (27 ± 2 °C), which was aligned with the OECD TG 250 (see below). Exposures” for “Exposures”, “length. […] To do so, each embryo was photographed and analyzed as described by Brion et al. At the end of the refined FET assay, all living zebrafish embryos were euthanized using a protocol combining anesthesia induced by 168 mg/L tricaine (Pharmaq, delivered from Vetofish, Chateauneuf-les-Martigues, France) and the addition of bleach solution (sodium hypochlorite 6.15%; 1 volume of bleach to 5 volumes of water) to induce death.” for “length.”
For fluorescence imaging, GFP fold induction was expressed as mean ± SEM, and values were compared to the DMSO control using one-way ANOVA followed by Dunnett’s posthoc test.

[9] = zebrafish embryos, ref Gao et al.
[10] = zebrafish embryos, ref Ren et al. (2017)
[11] = 150h exposure, ref Song et al. (2014)

Sequence of zebrafish ERβ2 (zfERβ2) (Q7ZU32 1-553): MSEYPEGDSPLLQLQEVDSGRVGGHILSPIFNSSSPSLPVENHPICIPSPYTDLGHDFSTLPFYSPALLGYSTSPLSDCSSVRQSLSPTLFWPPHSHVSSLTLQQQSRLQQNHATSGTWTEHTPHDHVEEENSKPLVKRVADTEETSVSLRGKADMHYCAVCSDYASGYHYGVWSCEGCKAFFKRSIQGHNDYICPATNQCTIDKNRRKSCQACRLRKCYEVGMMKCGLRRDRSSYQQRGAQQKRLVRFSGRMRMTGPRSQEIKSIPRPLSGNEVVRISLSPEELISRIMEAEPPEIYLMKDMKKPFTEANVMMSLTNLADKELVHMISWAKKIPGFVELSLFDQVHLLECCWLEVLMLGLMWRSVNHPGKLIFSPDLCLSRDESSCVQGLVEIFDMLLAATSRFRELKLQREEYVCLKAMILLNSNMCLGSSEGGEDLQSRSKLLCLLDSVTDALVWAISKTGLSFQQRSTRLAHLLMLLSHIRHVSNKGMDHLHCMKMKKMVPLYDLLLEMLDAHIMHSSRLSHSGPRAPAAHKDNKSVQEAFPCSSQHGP

Row | SMILES | LC50 at 96 h [2] [µg/mL] | EC50 [3] [µg/mL] | LOEC edema [3] [mg/L] | LOEC head malformations [3] [mg/L] | LOEC heart rate disruption [3] [mg/L] | LOEC hemorrhage [3] [mg/L] | LOEC no blood tail circulation [3] [mg/L] | LOEC tail/spinal malformations [3] [mg/L] | LOEC deformity of yolk [3] [mg/L] | Emax (zebrafish ERβ2 (zfERβ2)) [%] | EC50 (hERβ [5]) [nM] | maximal efficacy (hERβ [5]) [%] | Log Kow [6] | maximal efficacy (hERβ [7]) [%] | also measured
1 | Nc1ccc(Cl)c(Cl)c1 [3,4-DCA, reference compound] |  |  |  |  |  |  |  |  |  |  |  |  |  |  | LC50 (96h) experimental (FET test) [1]: 2.46 µg/mL (≈ 15.2 µM); mean LC50 of FET positive control (Zebrafish embryos; ref OECD TG 236 validation report): 2.7 µg/mL
2 | Oc1ccc(Oc2ccc(O)cc2)cc1 [4,4’-ODP, 4-(4-hydroxyphenoxy)phenol] | 17.1 (≈ 84.3 µM) | 0.35 (≈ 1.73 µM) | 0.99 | 2.96 | 2.96 | 0.99 | 8.89 | 2.96 | 2.96 | 61 | 3060 | 72 |  |  | LOEC growth retardation [3]: 8.89 mg/L; LOEC no/Less pigmentation [3]: 0.99 mg/L; EC50 ([4]; Danio rerio, 96 h, 96 h): 0.363 µg/mL (≈ 1.8 µM)
3 | CCC(C)(c1ccc(O)cc1)c1ccc(O)cc1 [BPB, 4-[2-(4-hydroxyphenyl)butan-2-yl] phenol] | 6.85 (≈ 28.3 µM) | 5.4 (≈ 22.3 µM) | 5 | 10 | 10 | 10 |  |  | 10 | 66 | 128 | 60 | 3.95 | 56 | LOEC no spontaneous movement [3]: 10 mg/L; minimal effective concentration ([4]; Danio rerio, 96 h, read-out: EASZY LOEC (GFP induction), nominal): 0.312 µg/mL; LOEC (body length, GnRH3 neurons, reproductive neuroendocrine-related genes and hormones) (Zebrafish embryos): 100 µg/L; NOEC (body length, GnRH3 neurons, reproductive neuroendocrine-related genes and hormones) (Zebrafish embryos): 1 µg/L; NOEC (developmental toxicity) (Zebrafish embryos; Wildtype (AB/TL), 1-6 dpf static + 6-9 dpf semistatic, ref Catron et al. (2018; 2019)): 5.1 µM; LC50 (Zebrafish embryos; read-out: LC50(96h), Wildtype AB, 96h-exposure, ref Arrokhman et al. (2023)): 28000 nM; LC50 (96h) literature (Zebrafish embryos; zebrafish embryos, ref Arrokhman et al.): 6.79 µg/mL (≈ 28 µM); LC50 (96h) literature (Zebrafish embryos; [9]): 3.52 µg/mL (≈ 14.5 µM); Body length LOEC (Zebrafish embryos; [10]): 2 mg/L; Body length NOEC (Zebrafish embryos; [10]): 1 mg/L; LC50(24h) (Zebrafish embryos; [10]): 7.18 µg/mL (≈ 29.6 µM); LC50(48h) (Zebrafish embryos; [10]): 6.54 µg/mL (≈ 27 µM); LC50(72h) (Zebrafish embryos; [10]): 4.53 µg/mL (≈ 18.7 µM); LC50 (96h) literature (Zebrafish embryos; zebrafish embryos, ref Ren et al.): 3.88 µg/mL (≈ 16 µM); LC50(24h) (Adult Zebrafish): 5.07 µg/mL (≈ 20.9 µM); LC50(48h) (Adult Zebrafish): 4.64 µg/mL (≈ 19.1 µM); LC50(72h) (Adult Zebrafish): 4.15 µg/mL (≈ 17.1 µM); LC50(96h) (Adult Zebrafish): 4.15 µg/mL (≈ 17.1 µM)
4 | Cc1cc(C(C)(C)c2ccc(O)c(C)c2)ccc1O [BPC, 4-[2-(4-hydroxy-3-methylphenyl)propan-2-yl]-2-methylphenol] | 4.92 (≈ 19.2 µM) | 2.77 (≈ 10.8 µM) |  |  | 8.53 | 8.53 | 8.53 | 8.53 |  | 66 |  |  | 4.32 |  | LC50 (96h) literature (Zebrafish embryos; [9]): 2.22 µg/mL (≈ 8.66 µM)
5 | O=S(=O)(c1ccc(O)cc1)c1ccc(O)cc1 [BPS, 4-(4-hydroxyphenyl)sulfonylphenol] |  |  |  |  |  |  |  |  | 400 | 85 | 1720 | 100 |  | 77 | EC50 ([8]; Danio rerio, Hill model, read-out: EC50 GFP induction in refined FET): 35.7 µg/mL (≈ 143 µM); EC10 GFP induction in refined FET [8]: 16.6 µg/mL (≈ 66.3 µM); EC20 GFP induction in refined FET [8]: 22.0 µg/mL (≈ 87.9 µM); EC50 ([4]; Danio rerio, 96 h, 96 h): 62.7 µg/mL (≈ 251 µM); EC50 (hERβ [7]): 2100 nM; LC10(96h) (Zebrafish embryos; 4-days exposure): > 100 µg/mL; Hatching success EC50(72h) (Zebrafish embryos; 4-days exposure, ref Moreman et al. (2017)): 155 (15) mg/L; LOEC (body length, GnRH3 neurons, reproductive neuroendocrine-related genes and hormones) (Zebrafish embryos): 100 µg/L; NOEC (body length, GnRH3 neurons, reproductive neuroendocrine-related genes and hormones) (Zebrafish embryos): 1 µg/L; LC10(96h) (Zebrafish embryos): > 400000 nM; Body length LOEC (Zebrafish embryos; [10]): 350 mg/L; Body length NOEC (Zebrafish embryos; [10]): 300 mg/L; Hatching rate EC50(120h) (Zebrafish embryos; [10]): 200 µg/mL; Heart rate EC50(78h) (Zebrafish embryos; [10]): 318 µg/mL
6 | O=S(=O)(c1ccc(O)cc1)c1ccc(OCc2ccccc2)cc1 [BPS-MPE, 4-(4-phenylmethoxyphenyl) sulfonylphenol] | 3.17 (≈ 9.31 µM) | 3.45 (≈ 10.1 µM) |  |  |  |  |  |  |  |  |  |  | 4.18 | 4 | 
8 | CC(C)(c1cc(Cl)c(O)c(Cl)c1)c1cc(Cl)c(O)c(Cl)c1 [TCBPA, Tetrachloro-bisphenol A] | 0.88 (≈ 2.4 µM) | 0.48 (≈ 1.31 µM) | 0.5 | 1 | 1 |  | 1 | 0.5 | 1 | 42 | 68000 | 21 | 6.19 | 15 | LOEC no spontaneous movement [3]: 2 mg/L; LOEC no/Less pigmentation [3]: 1 mg/L; estrogenic activity in EASZY assay ([4]; zebrafish, in vivo): absence of estrogenic activity; concentrations causing lethal effects (Zebrafish embryos; 3-6 dpf exposure, ref Riu et al. (2014)): above 1 µM; LC50(144h) (Zebrafish embryos; [11]): 0.75 µg/mL (≈ 2.05 µM); LOAELs (Zebrafish embryos; [11]): 1 mg/L; LC50 (96h) literature (Zebrafish embryos; zebrafish embryos, ref Song et al.): ≈ 1 mg/L
